Experimental findings from ChEMBL document CHEMBL5104090, “Recent advances in the medicinal chemistry of carbonic anhydrase inhibitors” (Eur J Med Chem, 2021) are described below.

Test [1] has as its target T1, Carbonic anhydrase 1 (Homo sapiens, UniProt P00915).
Test [2] concerns the target T2, Carbonic anhydrase 2 (Homo sapiens, UniProt P00918).
Another test deals with Ca9-22. Put plainly: cells. The format is functional. To be noted: Homo sapiens, time 48 hrs.
The subject of a further test is HSC-2. Put plainly: cells. To be noted: Homo sapiens, time 48 hrs. The format is functional.
A further test has as its system HSC-3. Put plainly: cells. The format is functional. To be noted: Homo sapiens, time 48 hrs.
The test system of another test is HSC-4. Put plainly: cells. To be noted: Homo sapiens, time 48 hrs. The format is functional.
In test [3] the target is T3, Carbonic anhydrase 9 (Homo sapiens, UniProt Q16790).
Test [4] concerns the target T1, Carbonic anhydrase 1. The source holds these as a separate data set.
For test [5], the target named is T2, Carbonic anhydrase 2. This is another data set of the same source.
A further test has as its target Carbonic anhydrase 7 (Homo sapiens, UniProt P43166).
The target in test [6] is T1, Carbonic anhydrase 1. The source holds these as a separate data set.
In test [7] the target is T4, Carbonic anhydrase 12 (Homo sapiens, UniProt O43570).
In test [8] the target is T3, Carbonic anhydrase 9. This is another data set of the same source.
The target in test [9] is T1, Carbonic anhydrase 1. The source holds these as a separate data set.
The target in test [10] is T2, Carbonic anhydrase 2. This is another data set of the same source.
Test [11] deals with T3, Carbonic anhydrase 9. This is another data set of the same source.
The target of test [12] is T4, Carbonic anhydrase 12. This is another data set of the same source.
The target of test [13] is T3, Carbonic anhydrase 9. The source holds these as a separate data set.

Structures are written as SMILES.

T4 sequence (O43570 whole entry): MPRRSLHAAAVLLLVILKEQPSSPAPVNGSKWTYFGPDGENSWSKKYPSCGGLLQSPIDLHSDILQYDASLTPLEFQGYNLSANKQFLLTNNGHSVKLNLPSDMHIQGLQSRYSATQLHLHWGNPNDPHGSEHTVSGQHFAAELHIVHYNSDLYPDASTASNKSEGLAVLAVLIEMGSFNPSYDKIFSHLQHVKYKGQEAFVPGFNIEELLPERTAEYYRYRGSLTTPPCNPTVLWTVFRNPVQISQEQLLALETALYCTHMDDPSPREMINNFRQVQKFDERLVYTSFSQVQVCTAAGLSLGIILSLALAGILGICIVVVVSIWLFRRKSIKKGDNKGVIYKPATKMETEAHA
T1 sequence (P00915 whole entry): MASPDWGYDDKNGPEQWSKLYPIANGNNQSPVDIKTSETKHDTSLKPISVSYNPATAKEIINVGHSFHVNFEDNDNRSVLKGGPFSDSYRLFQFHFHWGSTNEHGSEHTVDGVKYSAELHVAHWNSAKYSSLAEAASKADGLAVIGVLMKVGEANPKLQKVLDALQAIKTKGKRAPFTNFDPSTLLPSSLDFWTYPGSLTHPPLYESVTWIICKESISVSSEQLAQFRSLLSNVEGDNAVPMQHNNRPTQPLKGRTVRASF
Sequence of Carbonic anhydrase 7 (P43166 whole entry): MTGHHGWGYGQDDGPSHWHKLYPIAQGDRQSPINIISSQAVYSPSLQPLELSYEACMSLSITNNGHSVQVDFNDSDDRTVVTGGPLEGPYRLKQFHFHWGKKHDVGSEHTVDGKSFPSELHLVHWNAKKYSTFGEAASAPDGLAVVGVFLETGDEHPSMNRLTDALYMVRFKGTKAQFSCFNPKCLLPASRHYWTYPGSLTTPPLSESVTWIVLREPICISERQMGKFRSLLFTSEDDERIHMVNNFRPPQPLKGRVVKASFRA
Description for Ca9-22: Cytotoxicity against human Ca9-22 cells assessed as cell growth inhibition measured after 48 hrs by MTT assay
Description for HSC-2: Cytotoxicity against human HSC-2 cells assessed as cell growth inhibition measured after 48 hrs by MTT assay
Description for HSC-3: Cytotoxicity against human HSC-3 cells assessed as cell growth inhibition measured after 48 hrs by MTT assay
Description for HSC-4: Cytotoxicity against human HSC-4 cells assessed as cell growth inhibition measured after 48 hrs by MTT assay

What is called Ki is the equilibrium dissociation constant of an inhibitor or competing ligand from its target. As to `COc1ccc(C2CC(c3cccs3)=NN2c2ccc(S(N)(=O)=O)cc2)c(OC)c1` (stereo not given), the Ki on Carbonic anhydrase 1 [1] was found to be 24.2 nM; at Carbonic anhydrase 2 [2] it was 37.3 nM.
As a reminder, the CC50 is the concentration at which the toxic effect on the cells reaches its halfway point. The low end stands for greater toxicity to the cells, the high end for lower toxicity to the cells. As for `COc1ccc(C2CC(c3ccc(Br)cc3)=NN2c2ccc(S(N)(=O)=O)cc2)c(OC)c1` (stereo not given), the CC50 with Ca9-22, with HSC-2, with HSC-3 and in the test on HSC-4 was 15000 nM in each case.
On to `NS(=O)(=O)c1ccc(C(=O)NN2C(=O)c3cccc4cccc(c34)C2=O)cc1`, for which the Kis on Carbonic anhydrase 9 [3] was 3 nM.
Still for that read-out and setting: with `NS(=O)(=O)c1ccc(C(=O)NN2C(=O)c3ccccc3C2=O)cc1` the figure was 3 nM.
As for `Cc1ccc(-n2nc(-c3ccccc3)c(/N=N/c3ccc(Br)cc3)c2-c2ccccc2)cc1C`, the Ki on Carbonic anhydrase 1 [4] worked out at 1.06 nM; on Carbonic anhydrase 2 [5], 0.68 nM.
`COc1ccccc1[SeH]` came in with a Ki on Carbonic anhydrase 7 of 760 nM.
For `COc1ccc(C2CC(c3ccc(Cl)cc3)=NN2c2ccc(S(N)(=O)=O)cc2)cc1OC` (stereo not given), the CC50 with Ca9-22, in the test on HSC-2, with HSC-3 and in the test with HSC-4 was 15000 nM throughout.
With `O=C(O)CN1C(=O)S/C(=C/c2ccccc2)C1=O`, the Ki at Carbonic anhydrase 1 [6] is more than 100000 nM. Also, the Kis on Carbonic anhydrase 12 [7] was 0.3 µM.
With `Cc1ccc([SeH])cc1`, the inhibition constant (Ki) on Carbonic anhydrase 9 [8] worked out at 180 nM; at Carbonic anhydrase 7, 760 nM.
Consider `Fc1ccc([SeH])cc1`, for which the Ki on Carbonic anhydrase 9 [8] came out at 180 nM; at Carbonic anhydrase 7, 760 nM.
`Cc1cccc(C)c1[SeH]` had a Ki on Carbonic anhydrase 7 of 760 nM.
Regarding `NS(=O)(=O)c1ccc(N2N=C(c3cccs3)CC2c2cccs2)cc1` (stereo not given), the figures for the inhibitory constant (Ki) on Carbonic anhydrase 1 [1] and on Carbonic anhydrase 2 [2] were 24.2 nM and 37.3 nM, respectively.
Turning to `O=[N+]([O-])c1ccccc1-n1nc(-c2ccccc2)c(/N=N/c2ccc(Br)cc2)c1-c1ccccc1`, the Ki amounted to 1.06 nM at Carbonic anhydrase 1 [4] and 0.68 nM at Carbonic anhydrase 2 [5].
Take `COc1ccc(C2CC(c3ccc(F)cc3)=NN2c2ccc(S(N)(=O)=O)cc2)c(OC)c1` (stereo not given): the CC50 in the test on Ca9-22, in the test with HSC-2, with HSC-3 and in the test with HSC-4 was 15000 nM each time.
`[SeH]c1ccccc1`: the Ki at Carbonic anhydrase 9 [8] was determined as 180 nM; on Carbonic anhydrase 7, 760 nM.
The compound `Cc1ccccc1[SeH]` came in with a Ki on Carbonic anhydrase 7 of 760 nM.
Take `CCn1nc(-c2ccccc2)c(/N=N/c2ccc(Br)cc2)c1-c1ccccc1`: the Ki on Carbonic anhydrase 1 [4] is 1.06 nM; on Carbonic anhydrase 2 [5] it was 0.68 nM.
For the compound `COc1ccc(C2CC(c3ccc(Cl)cc3)=NN2c2ccc(S(N)(=O)=O)cc2)c(OC)c1` (stereo not given), the CC50 in the test on Ca9-22, in the test on HSC-2, with HSC-3 and in the test on HSC-4 was 15000 nM in each case.
As for `COc1ccc(C2CC(c3cccs3)=NN2c2ccc(S(N)(=O)=O)cc2)cc1OC` (stereo not given), the Ki on Carbonic anhydrase 1 [1] was found to be 24.2 nM; on Carbonic anhydrase 2 [2], 37.3 nM.
On the same counts, the results for `NS(=O)(=O)c1ccc(N2N=C(c3cccs3)CC2c2ccc(C(F)(F)F)cc2)cc1` (stereo not given) are 24.2 nM and 37.3 nM.
For orientation: IC50 means the concentration that gives 50% inhibition. For the compound `Cn1c(-c2ccc(Cl)cc2)nc2cc(C(=O)O)ccc21`, the IC50 against Carbonic anhydrase 1 [9], at Carbonic anhydrase 2 [10], on Carbonic anhydrase 9 [11] and on Carbonic anhydrase 12 [12] was more than 360 nM throughout.
Regarding `Cn1c(-c2ccc(Cl)cc2)nc2cc(B(O)O)ccc21`, the IC50 at Carbonic anhydrase 1 [9], at Carbonic anhydrase 2 [10], against Carbonic anhydrase 9 [11] and against Carbonic anhydrase 12 [12] was more than 360 nM throughout.
As to `Cn1nc(-c2ccccc2)c(/N=N/c2ccc(Br)cc2)c1-c1ccccc1`, the Ki on Carbonic anhydrase 1 [4] was determined as 1.06 nM; at Carbonic anhydrase 2 [5] it was 0.68 nM.
Consider `[SeH]c1ccc2ccccc2c1`, for which the Ki at Carbonic anhydrase 9 [8] was 460 nM; at Carbonic anhydrase 7 it was 760 nM.
For `O=C(O)CN1C(=O)S/C(=C/c2ccc(Cl)cc2)C1=O`, the Ki is more than 100000 nM on Carbonic anhydrase 1 [6] and 3100 nM at Carbonic anhydrase 9 [13]. At Carbonic anhydrase 12 [7], this compound registered a Kis of 0.3 µM.
Regarding `COc1cccc([SeH])c1`, the Ki on Carbonic anhydrase 9 [8] amounted to 280 nM; at Carbonic anhydrase 7, 760 nM.
As for `Cc1ccc(/C=C2/SC(=O)N(CC(=O)O)C2=O)cc1`, the inhibition constant (Ki) on Carbonic anhydrase 1 [6] and on Carbonic anhydrase 9 [13] was more than 100000 nM in each case. In addition, the Kis on Carbonic anhydrase 12 [7] stood at 0.3 µM.
For the compound `COc1ccc(/C=C2/SC(=O)N(CC(=O)O)C2=O)cc1`, the Ki is more than 100000 nM on Carbonic anhydrase 1 [6] and 3100 nM on Carbonic anhydrase 9 [13]. For the same compound, the Kis at Carbonic anhydrase 12 [7] was determined as 0.3 µM.
In the case of `Cc1ccc(C2CC(c3cccs3)=NN2c2ccc(S(N)(=O)=O)cc2)cc1` (stereo not given), the Ki on Carbonic anhydrase 1 [1] worked out at 24.2 nM; at Carbonic anhydrase 2 [2], 37.3 nM.
In the case of `COc1ccc(C2CC(c3cccs3)=NN2c2ccc(S(N)(=O)=O)cc2)cc1` (stereo not given), the inhibition constant (Ki) on Carbonic anhydrase 1 [1] was determined as 24.2 nM; at Carbonic anhydrase 2 [2], 37.3 nM.
Regarding `Cn1c(-c2ccccc2)nc2cc(C(=O)NO)ccc21`, the IC50 on Carbonic anhydrase 1 [9], on Carbonic anhydrase 2 [10], at Carbonic anhydrase 9 [11] and on Carbonic anhydrase 12 [12] was more than 360 nM each time.
Compound `NS(=O)(=O)c1ccc(C(=O)NN2C(=O)c3cc(Cl)c(Cl)cc3C2=O)cc1` had a Kis at Carbonic anhydrase 9 [3] of 3 nM.
The compound `NS(=O)(=O)c1ccc(C(=O)NN2C(=O)c3cccc4cc([N+](=O)[O-])cc(c34)C2=O)cc1` displayed a Kis on Carbonic anhydrase 9 [3] of 3 nM.
Turning to `NS(=O)(=O)c1ccc(N2N=C(c3cccs3)CC2c2ccc(F)cc2)cc1` (stereo not given), the Ki at Carbonic anhydrase 1 [1] was 24.2 nM; at Carbonic anhydrase 2 [2], 37.3 nM.
On to `COc1ccc(C2CC(c3ccccc3)=NN2c2ccc(S(N)(=O)=O)cc2)cc1OC` (stereo not given), for which the CC50 with Ca9-22, in the test with HSC-2, in the test with HSC-3 and in the test on HSC-4 was 15000 nM in each case.
With `Cn1c(-c2ccccc2)nc2cc(S(N)(=O)=O)ccc21`, the IC50 against Carbonic anhydrase 1 [9], against Carbonic anhydrase 2 [10], against Carbonic anhydrase 9 [11] and against Carbonic anhydrase 12 [12] was more than 360 nM each time.
For `COc1cccc(/C=C2/SC(=O)N(CC(=O)O)C2=O)c1`, the Ki on Carbonic anhydrase 1 [6] and on Carbonic anhydrase 9 [13] was more than 100000 nM each time. Further, the Kis at Carbonic anhydrase 12 [7] was found to be 0.3 µM.
As to `O=C(O)CN1C(=O)S/C(=C/c2ccccc2Cl)C1=O`, the Ki at Carbonic anhydrase 1 [6] was more than 100000 nM. This compound also had a Kis on Carbonic anhydrase 12 [7] of 0.3 µM.
Turning to `NS(=O)(=O)c1ccc(N2N=C(c3cccs3)CC2c2ccccc2)cc1` (stereo not given), the Ki at Carbonic anhydrase 1 [1] was 24.2 nM; at Carbonic anhydrase 2 [2] it was 80.6 nM.
For `Cn1c(-c2ccccc2)nc2cc(B(O)O)ccc21`, the IC50 against Carbonic anhydrase 1 [9], at Carbonic anhydrase 2 [10], on Carbonic anhydrase 9 [11] and on Carbonic anhydrase 12 [12] was more than 360 nM each time.
Consider `Brc1ccc(/N=N/c2c(-c3ccccc3)nn(-c3ccccc3)c2-c2ccccc2)cc1`, for which the Ki on Carbonic anhydrase 1 [4] was found to be 1.06 nM; on Carbonic anhydrase 2 [5] it was 0.68 nM.
`Cn1c(-c2ccc(Cl)cc2)nc2cc(S(N)(=O)=O)ccc21`: the IC50 at Carbonic anhydrase 1 [9], against Carbonic anhydrase 2 [10], at Carbonic anhydrase 9 [11] and on Carbonic anhydrase 12 [12] was more than 360 nM in each case.
As to `Cn1c(-c2ccc(B(O)O)cc2)nc2ccccc21`, the IC50 at Carbonic anhydrase 1 [9], against Carbonic anhydrase 2 [10], against Carbonic anhydrase 9 [11] and against Carbonic anhydrase 12 [12] was more than 360 nM in each case.
On to `NS(=O)(=O)c1ccc(N2N=C(c3cccs3)CC2c2ccc(Cl)cc2)cc1` (stereo not given), for which the Ki on Carbonic anhydrase 1 [1] was determined as 24.2 nM; at Carbonic anhydrase 2 [2] it was 37.3 nM.
Compound `O=C(O)CN1C(=O)S/C(=C/c2ccc(Br)cc2)C1=O` gave a Ki at Carbonic anhydrase 1 [6] of more than 100000 nM. Also, the Kis at Carbonic anhydrase 12 [7] was found to be 0.3 µM.
Take `COc1ccc(C2CC(c3ccccc3)=NN2c2ccc(S(N)(=O)=O)cc2)c(OC)c1` (stereo not given): the CC50 in the test with Ca9-22, in the test with HSC-2, in the test on HSC-3 and with HSC-4 was 15000 nM in each case.
Turning to `NS(=O)(=O)c1ccc(C(=O)NN2C(=O)c3c(Br)c(Br)c(Br)c(Br)c3C2=O)cc1`, the Kis at Carbonic anhydrase 9 [3] turned out to be 3 nM.
For the compound `Cc1ccc(C)c(-n2nc(-c3ccccc3)c(/N=N/c3ccc(Br)cc3)c2-c2ccccc2)c1`, the Ki on Carbonic anhydrase 1 [4] was found to be 1.06 nM; at Carbonic anhydrase 2 [5], 0.68 nM.
For `COc1ccc([SeH])cc1`, the values for the Ki at Carbonic anhydrase 9 [8] and at Carbonic anhydrase 7 were 180 nM and 760 nM, respectively.
For the compound `NS(=O)(=O)c1ccc2[nH]c(-c3ccccc3)nc2c1`, the IC50 at Carbonic anhydrase 1 [9], against Carbonic anhydrase 2 [10], against Carbonic anhydrase 9 [11] and at Carbonic anhydrase 12 [12] was more than 360 nM in each case.
As for `Cn1c(-c2ccc(Cl)cc2)nc2cc(C(N)=O)ccc21`, the IC50 against Carbonic anhydrase 1 [9], against Carbonic anhydrase 2 [10], at Carbonic anhydrase 9 [11] and at Carbonic anhydrase 12 [12] was more than 360 nM in each case.
With `Cn1c(-c2ccccn2)nc2cc(S(N)(=O)=O)ccc21`, the IC50 on Carbonic anhydrase 1 [9] was more than 360 nM; against Carbonic anhydrase 2 [10], more than 360 nM; against Carbonic anhydrase 9 [11] it was 6.6 nM; against Carbonic anhydrase 12 [12], 9.9 nM.
`Brc1ccc(NN=C2C(c3ccccc3)=NN=C2c2ccccc2)cc1`: the Ki at Carbonic anhydrase 1 [4] is 1.06 nM; on Carbonic anhydrase 2 [5], 0.68 nM.
Turning to `NS(=O)(=O)c1ccc(C(=O)NN2C(=O)c3c(Cl)c(Cl)c(Cl)c(Cl)c3C2=O)cc1`, the Kis at Carbonic anhydrase 9 [3] is 3 nM.
Take `Brc1ccc(/N=N/c2c(-c3ccccc3)nn(-c3ccc(Br)cc3)c2-c2ccccc2)cc1`: the Ki was 1.06 nM at Carbonic anhydrase 1 [4] and 0.68 nM at Carbonic anhydrase 2 [5].
Regarding `Cn1c(-c2ccc(Cl)cc2)nc2cc(C(=O)NO)ccc21`, the IC50 against Carbonic anhydrase 1 [9], at Carbonic anhydrase 2 [10], against Carbonic anhydrase 9 [11] and against Carbonic anhydrase 12 [12] was more than 360 nM each time.
On to `COc1ccc(C2CC(c3ccc(F)cc3)=NN2c2ccc(S(N)(=O)=O)cc2)cc1OC` (stereo not given), for which the CC50 in the test with Ca9-22, in the test on HSC-2, in the test on HSC-3 and with HSC-4 was 15000 nM in each case.
